Measured values as given in patent US6737383B1, “Herbicidal oxadiazolidines” (priority 1999, dated 2004).

Legend:
corn = assay: Test B pre/postemergence corn; format: in vivo, Zea mays
In short: (§1)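 Test chemicals in a non-phytotoxic solvent mixture with surfactant were sprayed preemergence onto planted seeds and postemergence onto plants 2 to 18 cm tall (1- to 4-leaf stage). After twelve to sixteen days in a greenhouse, injury was visually rated against untreated controls from 0 (no effect) to 10 (complete control).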

cocklebur = assay: Test B pre/postemergence cocklebur; format: in vivo, Xanthium strumarium
In short: as §1

bamyardgrass = assay: Test B flood test barnyardgrass; format: in vivo, Echinochloa crus-galli
In short: (§2)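 Flood test on plants grown to the 2-leaf stage; treated plants kept in greenhouse twelve to sixteen days, then visually rated against controls on a 0 (no effect) to 10 (complete control) scale.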

smallflower flatsedge = assay: Test B flood test smallflower flatsedge; format: in vivo, Cyperus difformis
In short: as §2

purple nutsedge = assay: Test B pre/postemergence purple nutsedge; format: in vivo, Cyperus rotundus; conditions: Postemergence
In short: as §1

wheat = assay: Test B pre/postemergence wheat; format: in vivo, Triticum aestivum
In short: as §1

velvetleaf = assay: Test B pre/postemergence velvetleaf; format: in vivo, Abutilon theophrasti
In short: as §1

rape = assay: Test B pre/postemergence rape; format: in vivo, Brassica napus
In short: as §1

duck salad = assay: Test B flood test duck salad; format: in vivo, Heteranthera limosa
In short: as §2

rice = assay: Test B flood test rice; format: in vivo, Oryza sativa
In short: as §2

bedstraw = assay: Test B pre/postemergence bedstraw; format: in vivo, Galium aparine
In short: as §1

crabgrass = assay: Test B pre/postemergence crabgrass; format: in vivo, Digitaria sanguinalis
In short: as §1

surinam grass = assay: Test B pre/postemergence surinam grass; format: in vivo, Brachiaria decumbens
In short: as §1

giant foxtail = assay: Test B pre/postemergence giant foxtail; format: in vivo, Setaria faberii
In short: as §1

blackgrass = assay: Test B pre/postemergence blackgrass; format: in vivo, Alopecurus myosuroides
In short: as §1

soybean = assay: Test B pre/postemergence soybean; format: in vivo, Glycine max
In short: as §1

sugar beet = assay: Test B pre/postemergence sugar beet; format: in vivo, Beta vulgaris
In short: as §1

[1] = Preemergence, Rate 62 g/ha, scale of 0 to 10 where 0 is no effect and 10 is complete control
[2] = Preemergence, Rate 250 g/ha, scale of 0 to 10 where 0 is no effect and 10 is complete control
[3] = Preemergence, Rate 500 g/ha, scale of 0 to 10 where 0 is no effect and 10 is complete control
[4] = Rate 62 g/ha, Postemergence, scale of 0 to 10 where 0 is no effect and 10 is complete control
[5] = Rate 125 g/ha, Postemergence, scale 0 to 10
[6] = Rate 125 g/ha, Preemergence, scale of 0 to 10 where 0 is no effect and 10 is complete control
[7] = Rate 500 g/ha, Postemergence, scale 0 to 10
[8] = Rate 62 g/ha, headed Pre-emergence (flood test species), scale 0 to 10 (0 no effect, 10 complete control)
[9] = Rate 125 g/ha, Pre-emergence, flood test species, scale 0 to 10 where 0 is no effect and 10 is complete control
[10] = Rate 250 g/ha, Pre-emergence, flood-test species, scale 0 to 10, 0 is no effect, 10 is complete control
[11] = Rate 500 g/ha, Pre-emergence, flood test species, scale 0 to 10 (0 no effect, 10 complete control)

## CC(=O)OCCCCn1c(=O)on(C(=O)N(c2ccc(F)cc2)C(C)C)c1=O [Compound 211]
corn; [1]
  Corn plant response rating: 0
corn; [2]
  Corn plant response rating: 0
corn; [3]
  Plant response rating, Corn: 0
corn; [4]
  Corn plant response rating: 0
corn; [5]
  Corn plant response rating: 0
corn; [6]
  Corn plant response rating: 0
corn; Rate 250 g/ha, Postemergence
  Plant response rating (0 to 10; 0 is no effect, 10 is complete control), Corn: 0
corn; [7]
  Corn plant response rating: 0
cocklebur; [1]
  Cocklebur plant response rating: 0
cocklebur; [2]
  Cocklebur plant response rating: 0
cocklebur; [3]
  Plant response rating, Cocklebur: 0
cocklebur; [4]
  Cocklebur plant response rating: 0
cocklebur; [5]
  Cocklebur plant response rating: 0
cocklebur; [6]
  Cocklebur plant response rating: 0
cocklebur; Rate 250 g/ha, Postemergence
  Plant response rating (0 to 10; 0 is no effect, 10 is complete control), Cocklebur: 0
cocklebur; [7]
  Cocklebur plant response rating: 0
bamyardgrass; [8]
  Barnyardgrass plant response rating: 0
bamyardgrass; [9]
  Barnyardgrass plant response rating: 0
bamyardgrass; [10]
  Barnyardgrass plant response rating: 0
bamyardgrass; [11]
  Barnyardgrass plant response rating: 0
Smallflower flatsedge; [8]
  S. Flatsedge plant response rating: 0
Smallflower flatsedge; [9]
  S. Flatsedge plant response rating: 0
Smallflower flatsedge; [10]
  S. Flatsedge plant response rating: 0
Smallflower flatsedge; [11]
  S. Flatsedge plant response rating: 0
Purple nutsedge; Rate 62 g/ha, scale of 0 to 10 where 0 is no effect and 10 is complete control
  Nutsedge plant response rating: 0
Purple nutsedge; Rate 125 g/ha, scale 0 to 10
  Nutsedge plant response rating: 0
Purple nutsedge; Rate 250 g/ha
  Plant response rating (0 to 10; 0 is no effect, 10 is complete control), Nutsedge: 0
Purple nutsedge; Rate 500 g/ha, scale 0 to 10
  Nutsedge plant response rating: 0
wheat; [1]
  Wheat plant response rating: 0
wheat; [2]
  Wheat plant response rating: 0
wheat; [3]
  Plant response rating, Wheat: 5
wheat; [4]
  Wheat plant response rating: 0
wheat; [5]
  Wheat plant response rating: 0
wheat; [6]
  Wheat plant response rating: 0
wheat; Rate 250 g/ha, Postemergence
  Plant response rating (0 to 10; 0 is no effect, 10 is complete control), Wheat: 0
velvetleaf; [1]
  Velvetleaf plant response rating: 0
velvetleaf; [2]
  Velvetleaf plant response rating: 0
velvetleaf; [3]
  Plant response rating, Velvetleaf: 0
velvetleaf; [4]
  Velvetleaf plant response rating: 0
velvetleaf; [5]
  Velvetleaf plant response rating: 0
velvetleaf; [6]
  Velvetleaf plant response rating: 0
velvetleaf; Rate 250 g/ha, Postemergence
  Plant response rating (0 to 10; 0 is no effect, 10 is complete control), Velvetleaf: 1
rape; [1]
  Rape plant response rating: 0
rape; [2]
  Rape plant response rating: 0
rape; [3]
  Plant response rating, Rape: 4
rape; [4]
  Rape plant response rating: 2
rape; [5]
  Rape plant response rating: 2
rape; [6]
  Rape plant response rating: 0
rape; Rate 250 g/ha, Postemergence
  Plant response rating (0 to 10; 0 is no effect, 10 is complete control), Rape: 2
rape; [7]
  Rape plant response rating: 3
Duck salad; [8]
  Ducksalad plant response rating: 0
Duck salad; [9]
  Ducksalad plant response rating: 0
Duck salad; [10]
  Ducksalad plant response rating: 0
Duck salad; [11]
  Ducksalad plant response rating: 0
rice; [8]
  Rice plant response rating: 0
rice; [9]
  Rice plant response rating: 0
rice; [10]
  Rice plant response rating: 0
rice; [11]
  Rice plant response rating: 0
bedstraw; [1]
  Bedstraw plant response rating: 0
bedstraw; [2]
  Bedstraw plant response rating: 0
bedstraw; [3]
  Plant response rating, Bedstraw: 10
bedstraw; [4]
  Bedstraw plant response rating: 4
bedstraw; [5]
  Bedstraw plant response rating: 7
bedstraw; [6]
  Bedstraw plant response rating: 0
bedstraw; [7]
  Bedstraw plant response rating: 8
crabgrass; [1]
  Crabgrass plant response rating: 0
crabgrass; [2]
  Crabgrass plant response rating: 3
crabgrass; [3]
  Plant response rating, Crabgrass: 3
crabgrass; [4]
  Crabgrass plant response rating: 0
crabgrass; [5]
  Crabgrass plant response rating: 0
crabgrass; [6]
  Crabgrass plant response rating: 0
crabgrass; Rate 250 g/ha, Postemergence
  Plant response rating (0 to 10; 0 is no effect, 10 is complete control), Crabgrass: 1
crabgrass; [7]
  Crabgrass plant response rating: 3
Surinam grass; [1]
  B. signalgrass plant response rating: 0
Surinam grass; Preemergence, Rate 250 g/ha, scale 0 to 10, 0 is no effect, 10 is complete control
  B. signalgrass plant response rating: 0
Surinam grass; [3]
  Plant response rating, B. signalgrass: 5
Surinam grass; [4]
  B. signalgrass plant response rating: 0
Surinam grass; Rate 125 g/ha, Postemergence, scale 0 (no effect) to 10 (complete control)
  B. signalgrass plant response rating: 0
Surinam grass; [6]
  B. signalgrass plant response rating: 0
Surinam grass; Rate 250 g/ha, Postemergence
  Plant response rating (0 to 10; 0 is no effect, 10 is complete control), B. signalgrass: 0
Surinam grass; Rate 500 g/ha, Postemergence, scale 0 to 10, 0 no effect, 10 complete control
  B. signalgrass plant response rating: 0
Giant foxtail; [1]
  Giant foxtail plant response rating: 3
Giant foxtail; [2]
  Giant foxtail plant response rating: 7
Giant foxtail; [3]
  Plant response rating, Giant foxtail: 8
Giant foxtail; [4]
  Giant foxtail plant response rating: 0
Giant foxtail; [5]
  Giant foxtail plant response rating: 0
Giant foxtail; [6]
  Giant foxtail plant response rating: 4
Giant foxtail; Rate 250 g/ha, Postemergence
  Plant response rating (0 to 10; 0 is no effect, 10 is complete control), Giant foxtail: 2
Giant foxtail; [7]
  Giant foxtail plant response rating: 3
blackgrass; [1]
  Blackgrass plant response rating: 6
blackgrass; [2]
  Blackgrass plant response rating: 9
blackgrass; [3]
  Plant response rating, Blackgrass: 9
blackgrass; [4]
  Blackgrass plant response rating: 2
blackgrass; [5]
  Blackgrass plant response rating: 3
blackgrass; [6]
  Blackgrass plant response rating: 9
blackgrass; Rate 250 g/ha, Postemergence
  Plant response rating (0 to 10; 0 is no effect, 10 is complete control), Blackgrass: 4
blackgrass; [7]
  Blackgrass plant response rating: 4
soybean; [1]
  Soybean plant response rating: 0
soybean; [2]
  Soybean plant response rating: 0
soybean; [3]
  Plant response rating, Soybean: 0
soybean; [4]
  Soybean plant response rating: 3
soybean; [5]
  Soybean plant response rating: 4
soybean; [6]
  Soybean plant response rating: 0
soybean; Rate 250 g/ha, Postemergence
  Plant response rating (0 to 10; 0 is no effect, 10 is complete control), Soybean: 4
soybean; [7]
  Soybean plant response rating: 4
Sugar beet; [1]
  Sugarbeets plant response rating: 0
Sugar beet; [2]
  Sugarbeets plant response rating: 0
Sugar beet; [3]
  Plant response rating, Sugarbeets: 8
Sugar beet; [4]
  Sugarbeets plant response rating: 0
Sugar beet; [5]
  Sugarbeets plant response rating: 2
Sugar beet; [6]
  Sugarbeets plant response rating: 0
Sugar beet; Rate 250 g/ha, Postemergence
  Plant response rating (0 to 10; 0 is no effect, 10 is complete control), Sugarbeets: 2
Sugar beet; [7]
  Sugarbeets plant response rating: 2
